Series [1] is described as follows: Human plasma protein binding (PPB). Format: in vitro ADME. The note with it: both sexes, pH 7.4; fraction unbound; human plasma, 1000 nmol/L peptide, ultracentrifugation; read-out: Human PPB (FUplasma). Here is the method: Stock solutions: (1000 μM) of the peptides are prepared in DMSO.
Human plasma (mixed gender; containing K2-EDTA as anti-coagulant; pre-adjusted to pH 7.4—NB alternative species may be used) is spiked individually with each test peptide (1000 nmol/L), sampled for analysis and then incubated (n=4) at 37° C. in a water bath for 30 minutes. Following the incubation period, the plasma is sampled for analysis, then transferred to ultracentrifugation tubes and centrifuged (n=3) at […] and 4° C. for 3 hours, after which the supernatant is sampled for analysis. An additional aliquot of the supernatant is taken at the end of the centrifugation period to determine the total protein concentration. An aliquot of the incubated plasma will be stored at 4° C. for 3 hours and then sampled for analysis. At the point of sampling, all samples are matrix-matched, treated with ice-cold acetonitrile/methanol (4:1 (vfv)) containing internal standard, centrifuged al 2000 g and 4° C. for 10 minutes and stored prior to LC-MS/MS analysis. An appropriate positive control compound control will be incubated and centrifuged in parallel; control plasma is also centrifuged to generate samples for matrix-matching. Fraction unbound in plasma (Fuplasma) values is determined by comparison of the analyte response in plasma to the analyte response in the supernatant, determined via peak area response ratios.
The samples are analyzed by LC-MS/MS using a 6500 (or equivalent) triple quadrupole mass spectrometer (AB Sciex) coupled to an appropriate Liquid Chromatography (LC) system. Protein binding and stability values are determined via peak area ratios using multiple reaction monitoring (MRM) parameters following compound optimisation. Multiple reaction monitoring (MRM) is a highly sensitive method of targeted mass spectrometry (MS) that can be used to selectively detect and quantify peptides based on the screening of specified precursor peptide-to-fragment ion transitions.

The nature of series [2]: Dog plasma protein binding (PPB). It counts as in vitro ADME. The conditions noted are these: pH 7.4; fraction unbound; dog serum; read-out: Dog PPB (FUplasma). An excerpt:
Dog PPB values presented below are obtained essentially as described for Human PPB samples, with the difference being that dog serum is used instead of human serum. Table 10 is provided with the values of (Fu,plasma) as fraction unbound expressed as a percentage compared to the percent bound. i.e. if the value is 0.0123, then the fraction unbound is […], which is 1.23% of the peptide is unbound and 98.77% is bound in plasma. Methods and analysis for performing the dog PPB protocol and results are the same as noted herein as for the Human PPB protocol and analysis.

Series [3] is described as follows: Solubility in phosphate buffer pH 7.4. In outline: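 Solubility at pH 7.4 determined by stepwise addition of 200 mM phosphate buffer in 100 μL increments to 3 mg peptide, mixing briefly each time, until no insoluble material remained, then measured by liquid chromatography.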

SMILES strings stand for the structures. Starred links: 1 amine or outer side, 2 acyl side, 3 side chain; linkers in the order of their positions; H or OH if unused. Non-standard residues stand in square brackets, D forms with d. Residues, ends and D or L forms follow the SMILES beside them. Groups on a side chain read outwards from the residue. *: point of attachment. C18 diacid = O=C(O)CCCCCCCCCCCCCCCCC(=O)*; C17 diacid = O=C(O)CCCCCCCCCCCCCCCC(=O)*; γGlu = O=C(O)[C@H](CCC(=O)[*:2])N[*:1]; NMeY = CN[C@@H](Cc1ccc(O)cc1)C(=O)O; AEEA = NCCOCCOCC(=O)O; Aib = CC(C)(N)C(=O)O

Turning to `CC[C@H](C)[C@H](NC(=O)[C@H](Cc1ccccc1)NC(=O)[C@@H](NC(=O)CNC(=O)[C@H](CCC(=O)O)NC(=O)C(C)(C)NC(=O)[C@H](Cc1ccc(O)cc1)NC)[C@@H](C)O)C(=O)N[C@@H](CO)C(=O)N[C@@H](CC(=O)O)C(=O)N[C@@H](Cc1ccc(O)cc1)C(=O)N[C@@H](CO)C(=O)N[C@H](C(=O)NC(C)(C)C(=O)N[C@@H](CC(C)C)C(=O)N[C@@H](CC(=O)O)C(=O)N[C@@H](CCCNC(=N)N)C(=O)NC(C)(C)C(=O)N[C@@H](C)C(=O)N[C@@H](CCC(N)=O)C(=O)NC(C)(C)C(=O)N[C@@H](CCCCNC(=O)COCCOCCNC(=O)COCCOCCNC(=O)CC[C@H](NC(=O)CC[C@H](NC(=O)CCCCCCCCCCCCCCCC(=O)O)C(=O)O)C(=O)O)C(=O)N[C@@H](Cc1ccccc1)C(=O)N[C@H](C(=O)N[C@@H](CC(N)=O)C(=O)N[C@@H](Cc1c[nH]c2ccccc12)C(=O)N[C@@H](CC(C)C)C(=O)N[C@@H](CC(C)C)C(=O)N[C@@H](C)C(=O)N[C@@H](CCC(N)=O)C(=O)N[C@@H](CCCNC(=N)N)C(=O)N1CCC[C@H]1C(=O)N[C@@H](CO)C(=O)N[C@@H](CO)C(=O)NCC(=O)N[C@@H](C)C(=O)N1CCC[C@H]1C(=O)N1CCC[C@H]1C(=O)N1CCC[C@H]1C(=O)N[C@@H](CO)C(N)=O)C(C)C)[C@@H](C)CC` [Compound 13] (H-[NMeY][Aib]EGTFISDYSI[Aib]LDR[Aib]AQ[Aib]K([AEEA-AEEA-γGlu-γGlu-C17 diacid])FVNWLLAQRPSSGAPPPS-NH2), the fraction unbound at 30 min, 1000 nmol/L in series [1] and in series [2] was less than 0.002 each time. Moreover, the solubility in series [3] (pH 7.4, aqueous buffer, pH 7.4 Phosphate Buffer - Solubility, 200 mM Phosphate buffer pH 7.4) is not below 30 mg/mL; in series [3] (pH 7.4, solubility in phosphate buffer at pH 7.4, 200 mM phosphate buffer pH 7.4), not below 15 mg/mL.
On to `CC[C@H](C)[C@H](NC(=O)[C@H](CO)NC(=O)[C@H](Cc1ccc(O)cc1)NC(=O)[C@H](CC(=O)O)NC(=O)[C@H](CO)NC(=O)[C@@H](NC(=O)[C@H](Cc1ccccc1)NC(=O)[C@@H](NC(=O)CNC(=O)[C@H](CCC(=O)O)NC(=O)C(C)(C)NC(=O)[C@H](Cc1ccc(O)cc1)NC)[C@@H](C)O)[C@@H](C)CC)C(=O)N[C@@H](C)C(=O)N[C@@H](CC(C)C)C(=O)N[C@@H](CC(=O)O)C(=O)N[C@@H](CCCNC(=N)N)C(=O)NC(C)(C)C(=O)N[C@@H](C)C(=O)N[C@@H](CCC(N)=O)C(=O)NC(C)(C)C(=O)N[C@@H](CCCCNC(=O)COCCOCCNC(=O)COCCOCCNC(=O)CC[C@H](NC(=O)CC[C@H](NC(=O)CCCCCCCCCCCCCCCCC(=O)O)C(=O)O)C(=O)O)C(=O)N[C@@H](Cc1ccccc1)C(=O)N[C@H](C(=O)N[C@@H](CC(N)=O)C(=O)N[C@@H](Cc1c[nH]c2ccccc12)C(=O)N[C@@H](CC(C)C)C(=O)N[C@@H](CC(C)C)C(=O)N[C@@H](C)C(=O)N[C@@H](CCC(N)=O)C(=O)N[C@@H](CCCNC(=N)N)C(=O)NCC(=O)O)C(C)C` [Compound 37] (H-[NMeY][Aib]EGTFISDYSIALDR[Aib]AQ[Aib]K([AEEA-AEEA-γGlu-γGlu-C18 diacid])FVNWLLAQRG-OH), for which the fraction unbound is 0.001 in series [1] and 0.0012 in series [2]. The solubility in series [3] (pH 7.4) was not below 15 mg/mL; in series [3] (pH 7.4, aqueous buffer) it was not below 30 mg/mL.

The term solubility denotes how much of the substance goes into solution per volume. A lower solubility goes with little dissolved substance.
